Tests used:
[1] = target: T1, Tyramine receptor (TyrR) (Drosophila melanogaster, UniProt P22270); test: Intracellular Ca2+ level in cells expressing TyrR; type: cell-based
T1 construct: expressed in transfected cells; host or cells: model cells in culture
T1 sequence (P22270 27-601): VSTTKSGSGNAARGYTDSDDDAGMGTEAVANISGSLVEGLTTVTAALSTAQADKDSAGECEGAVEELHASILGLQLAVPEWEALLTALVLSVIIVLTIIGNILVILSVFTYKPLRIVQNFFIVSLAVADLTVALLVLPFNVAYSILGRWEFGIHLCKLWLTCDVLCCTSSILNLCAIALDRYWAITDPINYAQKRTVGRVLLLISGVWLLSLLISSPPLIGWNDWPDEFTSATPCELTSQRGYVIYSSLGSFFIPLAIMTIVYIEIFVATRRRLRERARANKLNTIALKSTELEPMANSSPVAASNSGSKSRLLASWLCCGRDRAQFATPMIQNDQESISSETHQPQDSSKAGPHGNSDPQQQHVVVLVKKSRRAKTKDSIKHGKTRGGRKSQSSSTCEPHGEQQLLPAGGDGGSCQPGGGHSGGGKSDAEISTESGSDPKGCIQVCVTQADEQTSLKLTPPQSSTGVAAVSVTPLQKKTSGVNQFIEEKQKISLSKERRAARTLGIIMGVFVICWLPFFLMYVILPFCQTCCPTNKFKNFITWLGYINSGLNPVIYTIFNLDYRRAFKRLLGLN

[2] = target: T1, Tyramine receptor (TyrR); test: Tyramine receptor binding affinity in cells expressing TyrR
Experimental: In some embodiments, a method of selecting a composition for use in treating a parasitic infection includes the following. A cell expressing a tyramine receptor is provided and is contacted with test compounds. The receptor binding affinity of the compounds is measured. At least one parameter selected from the following parameters is measured: intracellular cAMP level, and intracellular Ca^2+ level. A first compound for the composition is identified, which is capable of altering at least one of the parameters, and which has a high receptor binding affinity for the tyramine receptor; and a second compound for the composition is identified, which is capable of altering at least one of the parameters, and which has a low receptor binding affinity for the tyramine receptor. A composition is selected that includes the first and second compounds.
As used herein, the term “receptor binding affinity” refers to an interaction between a composition or component, e.g., compound, and a receptor binding site. The interaction between a composition or component, and the receptor binding site, can be identified as specific or non-specific. In some embodiments, the specificity of an interaction between a composition or component, and a TyrR binding site, can be determined in the following manner. A wild type fly (Drosophila melanogaster) and a mutant fly are provided, where the mutant fly lacks a TyrR. The wild type and mutant flies are exposed to a composition or component of interest. […] If the exposure negatively affects the wild type fly and the mutant fly, then the treatment with the composition or component of interest can be said to be non-specific for the TyrR.
A “high receptor binding affinity” can be a specific interaction between a composition or component, and the receptor binding site.
A “low receptor binding affinity” can be a non-specific interaction between a composition or component, and the receptor binding site. […] In some embodiments, a low receptor binding affinity is found when the effective concentration at which tyramine binding is inhibited by 50% (EC50) is greater than about 500 μM, 625 μM, 750 μM, 875 μM, 1000 μM, 1125 μM, or 1250 μM.
A receptor gene encoding the Tyramine receptor (TyrR) has been isolated from the American cockroach, fruit fly, mosquito, and other organisms. The present subject matter provides methods of utilizing the TyrR protein expressed in cells to screen for compounds useful for treating parasitic infections.
(§1) In the present Example, the genes encoding TyrR were incorporated into model cells in culture that mimic receptors in insects. The screening process uses the cultured cells in combination with [Ca^2+]i and [cAMP]i measuring assays to quantitatively determine effectiveness of test compound to treat parasitic infections. The screening process allows for identification of compounds that produce highly efficacious anti-parasitic compositions.
(§2) The assay steps are as follows. A cell expressing a tyramine receptor is contacted with a test compound and the receptor binding affinity of the test compound is measured. Cells which can be used include, for example, HEK293 cells, COS cells, Drosophila Schneider or S2 cells, SF9, SF21, T.ni cells, or the like. cAMP and/or Ca^2+ levels within the cell are also monitored and any changes from contacting the test compound with the cell are noted for each compound tested. […] A composition for use in treating a parasitic formulation can then be selected that includes a plurality of the identified compounds. In particular, the composition can comprise at least one compound identified as having a high receptor binding affinity for the tyramine receptor as well as an ability to effect change in cAMP and/or Ca^2+ levels within the cell and at least one additional compound identified as having a low receptor binding affinity for the tyramine receptor as well as an ability to effect change in cAMP and/or Ca^2+ levels within the cell.

[3] = target: T1, Tyramine receptor (TyrR); test: Intracellular cAMP level in cells expressing TyrR; type: cell-based
Source text: as §1, §2

[4] = test system: H. nana; test: Anti-parasitic effect against H. nana in vivo in infected Swiss albino mice (egg count, cure rate); design: species or system Hymenolepsis nana; details: for Egg Count (X ± SD), Pre Treatment (Base Line Data): infected mice, before 400 mg/kg oral daily for 5 days;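 on all read-outs here: fecal egg counts per mouse in groups of 15, controls got soybean oil vehicle alone, cure judged 3 days after final dose by egg reduction and no adult intestinal worms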
[5] = 400 mg/kg oral daily for 5 days
[6] = 3 Days after last dose, 400 mg/kg oral daily for 5 days
[7] = 100 mg/kg oral daily for 5 days
[8] = Tested dose 100 mg/kg b.w. orally daily for 5 successive days

| Structure (SMILES) | Affects Intracellular Ca^2+ (Yes or No) [1] | Tyramine Receptor Binding Affinity (High or Low) [2] | Affects Intracellular cAMP (Yes or No) [3] | further results |
| --- | --- | --- | --- | --- |
| C=CCc1ccc(O)c(OC)c1 [Eugenol] | Yes | Low | No |  |
| Cc1ccc(C(C)C)cc1O [Rx4, carvacrol] |  |  |  | Egg Count (X ± SD), During Treatment 1st Day [4, 5]: 5 ± 0.6; Egg Count (X ± SD), During Treatment 2nd Day [4, 5]: 2.2 ± 3.4; Egg Count (X ± SD), During Treatment 3rd Day [4, 5]: 1 ± 1.9; Egg Count (X ± SD), During Treatment 4th Day [4, 5]: 0.9 ± 1.2; Egg Count (X ± SD), During Treatment 5th Day [4, 5]: 2 ± 2; Egg Count (X ± SD), Post treatment 2 Days after last dose [4, 5]: 1.3 ± 1.1; Cure rate (%) [4, 6]: 28.6%; Positiveity rate (%) [4, 6]: 71.4%; Egg Count (X ± SD), Pre Treatment (Base Line Data) [4]: 3 ± 1 |
| CC(C)=CCC/C(C)=C/CO [Rx5, geraniol] |  |  |  | Egg Count (X ± SD), During Treatment 1st Day [4, 5]: 14 ± 13.9; Egg Count (X ± SD), During Treatment 2nd Day [4, 5]: 1.4 ± 2.1; Egg Count (X ± SD), During Treatment 3rd Day [4, 5]: 4.1 ± 9.6; Egg Count (X ± SD), During Treatment 4th Day [4, 5]: 2.6 ± 7.4; Egg Count (X ± SD), During Treatment 5th Day [4, 5]: 2.3 ± 3.6; Egg Count (X ± SD), Post treatment 2 Days after last dose [4, 5]: 0.5 ± 0.9; Cure rate (%) [4, 6]: 66.6%; Positiveity rate (%) [4, 6]: 33.4%; cure rate ([4]; H. nana infected mice, 400 mg/kg body weight orally daily for 5 successive days, 3rd day after last dose): 66.6%; Egg Count (X ± SD), Pre Treatment (Base Line Data) [4]: 3 ± 1; Worms absent or dead in mice ([4]; treated for 5 consecutive days, 400 mg/kg, post treatment dissection): 67% |
| CC12CCC(CC1)C(C)(C)O2 [Rx6, cineol] |  |  |  | Egg Count (X ± SD), During Treatment 1st Day [4, 5]: 5 ± 9.5; Egg Count (X ± SD), During Treatment 2nd Day [4, 5]: 3.8 ± 14.3; Egg Count (X ± SD), During Treatment 3rd Day [4, 5]: 1 ± 1.2; Egg Count (X ± SD), During Treatment 4th Day [4, 5]: 1.8 ± 1.7; Egg Count (X ± SD), During Treatment 5th Day [4, 5]: 1.6 ± 1.5; Egg Count (X ± SD), Post treatment 2 Days after last dose [4, 5]: 2.5 ± 3.5; Cure rate (%) [4, 6]: 54.5%; Positiveity rate (%) [4, 6]: 45.5%; Egg Count (X ± SD), Pre Treatment (Base Line Data) [4]: 3.1 ± 1.2 |
| Cc1ccc(C(C)C)cc1 [Rx10, p-cymene] | Yes | Low | Yes | tyramine receptor binding affinity [2]: low (a low receptor binding affinity is found when the equilibrium dissociation constant (Kd) is greater than about 100 nM); Cure rate (%) [4, 7]: 13.3%; Cure rate (%) [4, 8]: 13.3% |
| Cc1ccc(C(C)C)c(O)c1 [Rx11, thymol] | Yes | High | No | Cure rate (%) [4, 7]: 33.3%; Cure rate (%) [4, 8]: 33.3% |
| C/C=C/c1ccc(OC)cc1 [anethole] | Yes | Low | Yes |  |
| OCc1ccccc1 [benzyl alcohol] | No | Low | Yes |  |
| CC12CCC(CC1)C(C)(C)O2 [cineol] | Yes | Low | Yes |  |
| OCC=Cc1ccccc1 [cinnamyl alcohol] | Yes | Low | No |  |
| C=C(C)[C@H]1CC=C(C)CC1 [d-limonene] | Yes |  |  |  |
| CC(C)=CCC/C(C)=C/CO [geraniol] | Yes | High | Yes |  |
| C=CC(C)(O)CCC=C(C)C (stereo not shown) [linalool] | Yes | High | No | Cure rate (%) [4, 7]: 23.3%; Cure rate (%) [4, 8]: 23.3% |
| CCC(=O)OCCc1ccccc1 [phenethyl proprionate] | No | Low | Yes |  |
| CCCCCCCCCCCCOS(=O)(=O)[O-].[Na+] [sodium lauryl sulfate] | No | Low | No |  |
| CCC(C)(O)CCCC(C)C (stereo not shown) [tetrahydrolinalool] | Yes | High | Yes |  |
| COc1cc(C=O)ccc1O [vanillin] |  |  | No |  |
| CC1=CCC2CC1C2(C)C (stereo not drawn) [α-pinene] | No | Low | No | Cure rate (%) [4, 7]: 25.0%; Cure rate (%) [4, 8]: 25.0% |

Reference: US20110008471A1, “SYNERGISTIC ANTIPARASITIC COMPOSITIONS AND SCREENING METHODS” (TyraTech, Inc., priority 2007, published 2011)
